Reference: ChEMBL document CHEMBL3885881, “DrugMatrix”

Organism: Rattus norvegicus
Experiment: DrugMatrix - Regimen: Daily Repeat
Format: toxicity, organism-based, Sprague-Dawley
Parameters: regimen Daily Repeat, gender Male, age 6-8 weeks
Conditions: in vivo, po, route oral GAVAGE, vehicle .5 % CMC; for ABSOLUTE BASOPHIL / ABSOLUTE EOSINOPHIL / ABSOLUTE LYMPHOCYTE / ABSOLUTE MONOCYTE / ABSOLUTE SEGMENTED NEUTROPHIL / BASOPHIL / EOSINOPHIL / ERYTHROCYTE COUNT / HEMATOCRIT / HEMOGLOBIN / LEUKOCYTE COUNT / LYMPHOCYTE / MEAN CORPUSCULAR HEMOGLOBIN / MEAN CORPUSCULAR HEMOGLOBIN CONCENTRATION / MEAN CORPUSCULAR VOLUME / MONOCYTE / NEUTROPHIL / NUCLEATED RED BLOOD CELLS / PLATELET COUNT: tissue Blood; for ALANINE AMINOTRANSFERASE / ALBUMIN / ALKALINE PHOSPHATASE / ASPARTATE AMINOTRANSFERASE / BLOOD UREA NITROGEN / CARBON DIOXIDE / CHLORIDE / CHOLESTEROL / CREATINE PHOSPHOKINASE / CREATININE / GLUCOSE / LACTATE DEHYDROGENASE / LIPASE / PHOSPHORUS / POTASSIUM / SODIUM / TOTAL BILIRUBIN / TOTAL PROTEIN / URIC ACID: tissue Plasma
[1] = 19 mg/kg, 120 h, dose level High, time 5 day
[2] = […], 72 h, dose 6.6 mg/Kg, dose level Low, time 3 day
[3] = […], 120 h, dose 6.6 mg/Kg, dose level Low, time 5 day

## NCC(CC(=O)O)c1ccc(Cl)cc1 (centres undefined) [BACLOFEN]
[1]
  ABSOLUTE BASOPHIL: 0 CELLS/uL
  ABSOLUTE EOSINOPHIL: 0 CELLS/uL
  ABSOLUTE LYMPHOCYTE: 14854 CELLS/uL
  ABSOLUTE MONOCYTE: 102.67 CELLS/uL
  ABSOLUTE SEGMENTED NEUTROPHIL: 1043.33 CELLS/uL
  BASOPHIL: 0%
  EOSINOPHIL: 0%
  ERYTHROCYTE COUNT: 5.41 x10E6/uL
  HEMATOCRIT: 33.6%
  HEMOGLOBIN: 13.33 G/DL
  LEUKOCYTE COUNT: 16 x10E3/uL
  LYMPHOCYTE: 93%
  MEAN CORPUSCULAR HEMOGLOBIN: 24.7 pg
  MEAN CORPUSCULAR HEMOGLOBIN CONCENTRATION: 39.73 G/DL
  MEAN CORPUSCULAR VOLUME: 62.17 fL
  MONOCYTE: 0.67%
  NEUTROPHIL: 6.33%
  NUCLEATED RED BLOOD CELLS: 0 /100WBC
  PLATELET COUNT: 1022.33 x10E3/uL
  ALANINE AMINOTRANSFERASE: 54.67 u/L
  ALBUMIN: 4.1 G/DL
  ALKALINE PHOSPHATASE: 431.33 u/L
  ASPARTATE AMINOTRANSFERASE: 87.67 u/L
  BLOOD UREA NITROGEN: 19.67 mg/dL
  CARBON DIOXIDE: 26.33 mmol/L
  CHLORIDE: 103.67 MEQ/L
  CHOLESTEROL: 59.33 mg/dL
  CREATINE PHOSPHOKINASE: 272.67 u/L
  CREATININE: 0.23 mg/dL
  GLUCOSE: 160 mg/dL
  LACTATE DEHYDROGENASE: 391 u/L
  LIPASE: 9 u/L
  PHOSPHORUS: 11.13 mg/dL
  POTASSIUM: 6.54 MEQ/L
  SODIUM: 147.27 MEQ/L
  TOTAL BILIRUBIN: 0.3 mg/dL
  TOTAL PROTEIN: 5.87 G/DL
  URIC ACID: 1.4 mg/dL
[2]
  ABSOLUTE BASOPHIL: 0 CELLS/uL
  ABSOLUTE EOSINOPHIL: 196 CELLS/uL
  ABSOLUTE LYMPHOCYTE: 14434 CELLS/uL
  ABSOLUTE MONOCYTE: 264.67 CELLS/uL
  ABSOLUTE SEGMENTED NEUTROPHIL: 1038.67 CELLS/uL
  BASOPHIL: 0%
  EOSINOPHIL: 1%
  ERYTHROCYTE COUNT: 5.8 x10E6/uL
  HEMATOCRIT: 36.17%
  HEMOGLOBIN: 13.87 G/DL
  LEUKOCYTE COUNT: 15.93 x10E3/uL
  LYMPHOCYTE: 90.67%
  MEAN CORPUSCULAR HEMOGLOBIN: 24.03 pg
  MEAN CORPUSCULAR HEMOGLOBIN CONCENTRATION: 38.37 G/DL
  MEAN CORPUSCULAR VOLUME: 62.57 fL
  MONOCYTE: 1.67%
  NEUTROPHIL: 6.67%
  NUCLEATED RED BLOOD CELLS: 0 /100WBC
  PLATELET COUNT: 1144 x10E3/uL
  ALANINE AMINOTRANSFERASE: 51.67 u/L
  ALBUMIN: 4.27 G/DL
  ALKALINE PHOSPHATASE: 456 u/L
  ASPARTATE AMINOTRANSFERASE: 81.33 u/L
  BLOOD UREA NITROGEN: 18.33 mg/dL
  CARBON DIOXIDE: 27 mmol/L
  CHLORIDE: 100 MEQ/L
  CHOLESTEROL: 67 mg/dL
  CREATINE PHOSPHOKINASE: 351.67 u/L
  CREATININE: 0.23 mg/dL
  GLUCOSE: 153.33 mg/dL
  LACTATE DEHYDROGENASE: 367.67 u/L
  LIPASE: 10.67 u/L
  PHOSPHORUS: 12.53 mg/dL
  POTASSIUM: 7.1 MEQ/L
  SODIUM: 142.1 MEQ/L
  TOTAL BILIRUBIN: 0.2 mg/dL
  TOTAL PROTEIN: 5.93 G/DL
  URIC ACID: 1.63 mg/dL
[3]
  ABSOLUTE BASOPHIL: 0 CELLS/uL
  ABSOLUTE EOSINOPHIL: 160.33 CELLS/uL
  ABSOLUTE LYMPHOCYTE: 14603.33 CELLS/uL
  ABSOLUTE MONOCYTE: 300.67 CELLS/uL
  ABSOLUTE SEGMENTED NEUTROPHIL: 1335.67 CELLS/uL
  BASOPHIL: 0%
  EOSINOPHIL: 1%
  ERYTHROCYTE COUNT: 5.47 x10E6/uL
  HEMATOCRIT: 35.43%
  HEMOGLOBIN: 13.57 G/DL
  LEUKOCYTE COUNT: 16.4 x10E3/uL
  LYMPHOCYTE: 89%
  MEAN CORPUSCULAR HEMOGLOBIN: 24.8 pg
  MEAN CORPUSCULAR HEMOGLOBIN CONCENTRATION: 38.3 G/DL
  MEAN CORPUSCULAR VOLUME: 64.8 fL
  MONOCYTE: 1.67%
  NEUTROPHIL: 8.33%
  NUCLEATED RED BLOOD CELLS: 0 /100WBC
  PLATELET COUNT: 1121.33 x10E3/uL
  ALANINE AMINOTRANSFERASE: 51 u/L
  ALBUMIN: 4.23 G/DL
  ALKALINE PHOSPHATASE: 364.33 u/L
  ASPARTATE AMINOTRANSFERASE: 94.33 u/L
  BLOOD UREA NITROGEN: 19 mg/dL
  CARBON DIOXIDE: 28.33 mmol/L
  CHLORIDE: 100.67 MEQ/L
  CHOLESTEROL: 71 mg/dL
  CREATINE PHOSPHOKINASE: 448 u/L
  CREATININE: 0.15 mg/dL
  GLUCOSE: 140.33 mg/dL
  LACTATE DEHYDROGENASE: 505 u/L
  LIPASE: 10 u/L
  PHOSPHORUS: 11.6 mg/dL
  POTASSIUM: 6.27 MEQ/L
  SODIUM: 143.57 MEQ/L
  TOTAL BILIRUBIN: 0.23 mg/dL
  TOTAL PROTEIN: 6.07 G/DL
  URIC ACID: 1.37 mg/dL
